Measured values: US12448372B2, “Class of triaromatic compounds targeting bifunctional phosphorylation site of STAT3 and applications thereof” (SHANGHAI YUYAO BIOTECH LTD., priority 2019, dated 2025)
pIC50, pKd: −log10 of the molar value. “Also recorded” adds a separate entry of the source. Where two headings read alike, the source gives them in different places.

Columns and labels:
[1] = target: STAT3 SH2 domain (Homo sapiens, UniProt P40763); test: Microscale thermophoresis binding to STAT3 SH2 domain; details: MST, FIG. 5A; read-out: affinity for the STAT3 SH2 domain
From the text: The microscale thermophoresis (MST) technique is a simple, rapid, and accurate method for quantifying biomolecular interactions. It can measure the movement of molecules in a microscopic temperature gradient field, as well as detect changes of molecular hydration shell, charge and size. When the Nanotemper microscale thermophoresis instrument locally heated by a infrared laser, molecules will move in a directional manner, then the molecular distribution ratio in the temperature gradient field are analyzed by a fluorescence to detect whether a small molecule compound binds to a target protein. The experimental operation is as follows: firstly, compounds to be tested are diluted in a gradient using MST test buffer, total 16 concentrations being configured; subsequently, the purified STAT3 recombinant protein is labeled using the HIS tag labeling kit, and the final concentration of the labeled protein is 100-200 nM; the labeled STAT3 proteins are well mixed with the diluted compounds and incubated and protected from light for 30 minutes; finally the samples were loaded by capillary tube and detected on the instrument. The binding constants (K^D) of small molecules to STAT3 protein were analyzed by Mo. analysis software.
(1) Microscale Thermophoresis Experiment
The method is as described in Example 40.

[2] = system: H23; test: Cell proliferation by MTS method, H23; type: cell-based; details: Homo sapiens, NCI-H23, Lung Cancer
From the text: (§1) (2) Detection of Cell Proliferation by MTS Method
(§2) The MTS assay is a method for indirectly determining the number of living cells via colourimetric method. MTS is a newly synthesised tetrazole compound that reflects cell viability, which can be reduced by succinate dehydrogenase in the mitochondria of living cells to an orange-coloured formazan with an absorbance of the reduced product measured at 490 nm being in proportion to the number of living cells, thus reflecting the cell viability. This assay can be used to evaluate the effect of the compound on the proliferation of pancreatic cancer cells, thereby determining the inhibitory effect of the compound on the proliferation of pancreatic cancer cells and to calculate the IC^50. Each cells were inoculated uniformly into a 96-well plate at a density of 1-20×10^3 cells/well, 100 μL per well, and placed in a constant temperature incubator until the cells adhered to the wall. […] Under light-proof conditions, MTS was added and well mixed, the mixture was placed in a constant temperature incubator at 37° C., and the light absorption value were measured using an enzyme marker at 490 nm and the experiment was repeated for three times, IC50 was calculated with GraphPad5 Prism software.

[3] = system: LNCAP; test: Cell proliferation by MTS method, LNCAP; type: cell-based; details: Homo sapiens, Prostate Cancer
From the text: as §1, §2

[4] = system: Capan-2; test: Cell proliferation by MTS method, Capan-2; type: cell-based; details: Homo sapiens
Method in brief: (§3)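 Cells were seeded at 1-20×10^3 per well and allowed to adhere, then exposed to a range of compound concentrations against medium-only controls for 24-96 h. MTS was added in the dark, plates incubated at 37° C., and absorbance read at 490 nm; IC50 from triplicate experiments.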

[5] = system: a variety of tumour cells; test: Cell proliferation by MTS method, summary over a variety of tumour cells; type: cell-based; details: summary over different types of cancer cells; read-out: half effective proliferation inhibition concentration (IC50) against a variety of tumour cells
From the text: as §1, §2

[6] = system: HepG2; test: Cell proliferation by MTS method, HepG2; type: cell-based; details: Homo sapiens, Liver Cancer
From the text: as §1, §2

[7] = system: MGC803; test: Cell proliferation by MTS method, MGC803; type: cell-based; details: Homo sapiens, MGC-803, gastric Cancer
From the text: as §1, §2

[8] = system: H1975; test: Cell proliferation by MTS method, H1975; type: cell-based; details: Homo sapiens, NCI-H1975, Lung Cancer
From the text: as §1, §2

[9] = system: Human pancreatic cancer cells (ASPC-1); test: In situ growth metastasis model of pancreatic cancer, ASPC-1 in nude mice; type: in vivo; details: in situ growth metastasis model (ASPC-1), nude mice, 5, 10, 20 mg/kg by gavage once a day, FIG. 4D
Description: (2) In situ growth metastasis model of pancreatic cancer. Human pancreatic cancer cells (ASPC-1) were used to bear tumors in the pancreas of age-appropriate nude mice, 6 or more mice in each group. One week after injection of tumour cells, all mice were randomly divided to the control group, WB737-5 mg/kg low dose group, 10 mg/kg medium dose group, 20 mg/kg high dose group and positive compound group. Different doses of WB737 or the positive compound were administered by gavage, and mice of control group were administered the same dose of solvent orally […], dosing once a day. During the experiment, the time and number of mice died due to pancreatic cancer metastasis were counted, and the results of the experiment were counted and survival curves were plotted.

[10] = system: H460; test: Cell proliferation by MTS method, H460; type: cell-based; details: Homo sapiens, NCI-H460, Lung Cancer
From the text: as §1, §2

[11] = system: HCT8; test: Cell proliferation by MTS method, HCT8; type: cell-based; details: Homo sapiens, HCT-8, Colon Cancer
From the text: as §1, §2

[12] = system: HT29; test: Cell proliferation by MTS method, HT29; type: cell-based; details: Homo sapiens, HT-29, Colon Cancer
From the text: as §1, §2

[13] = system: Huh7; test: Cell proliferation by MTS method, Huh7; type: cell-based; details: Homo sapiens, Huh-7
Method in brief: as §3

[14] = system: human pancreatic cancer cells PANC-1; test: Subcutaneous tumor-bearing experiment in nude mice, PANC-1
Description: (1-10)×10^6 human pancreatic cancer cells PANC-1 and MIAPACA-2 were injected subcutaneously into the right side of the back of immunodeficient mice (BALB/c-nude, nude mice, 5-6 weeks), and when the tumours grew to about 100 mm^3, the mice were evenly divided into five groups, i. e. blank control group; 5 mg/kg WB737 low-dose group; 10 mg/kg WB737 medium-dose group; 20 mg/kg WB737 high-dose group; 10 mg/kg IACS-010759 positive control group; all the above compounds were formulated with 0.5% MC and administered by gavage. Tumour volume and mouse weight were measured every four days, and tumour volume was calculated according to the formula of volume=length×width^2×0.52. After 3 weeks post-administration, mice were sacrificed and subcutaneous tumours were peeled off, weighed and photographed.

[15] = system: H522; test: Cell proliferation by MTS method, H522; type: cell-based; details: Homo sapiens, NCI-H522, Lung Cancer
From the text: as §1, §2

[16] = system: H1299; test: Cell proliferation by MTS method, H1299; type: cell-based; details: Homo sapiens, NCI-H1299, Lung Cancer
From the text: as §1, §2

[17] = system: human pancreatic cancer cells MIAPACA-2; test: Subcutaneous tumor-bearing experiment in nude mice, MIAPACA-2
Description: (1) Subcutaneous Tumor-Bearing Experiment in Nude Mice
Subcutaneous tumor-bearing experiment, i. e. tumour cells were injected subcutaneously into nude mice, and the tumour cells absorbed nutrients from the mice and rapidly proliferated to form tumours.
Tumour volume and mouse weight were measured every four days, and tumour volume was calculated according to the formula of volume=length×width^2×0.52. After 3 weeks post-administration, mice were sacrificed and subcutaneous tumours were peeled off, weighed and photographed.

[18] = system: SMMC7721; test: Cell proliferation by MTS method, SMMC7721; type: cell-based; details: Homo sapiens, SMMC-7721, Liver Cancer
From the text: as §1, §2

[19] = system: PLC/PRF-5; test: Cell proliferation by MTS method, PLC/PRF-5; type: cell-based; details: Homo sapiens, Liver Cancer
From the text: as §1, §2

[20] = system: DU145; test: Cell proliferation by MTS method, DU145; type: cell-based; details: Homo sapiens, DU-145, Prostate Cancer
From the text: as §1, §2

Chain of STAT3 SH2 domain (P40763 580-670 limits assumed): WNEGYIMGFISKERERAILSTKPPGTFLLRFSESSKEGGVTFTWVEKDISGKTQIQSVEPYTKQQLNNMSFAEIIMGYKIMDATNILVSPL

How did the pKd [1] turn out when Cn1c(C(=O)N2CCN(Cc3ccc(OCC(F)(F)F)cc3)CC2)cc2ccc(Oc3cnc(-c4nc(-c5ccc(C(F)(F)F)cc5)no4)cn3)cc21 [Example 6, (6-((5-(3-(4-(trifluoromethyl)phenyl)-1,2,4-oxadiazol-5-yl)pyrazin-2-yl)oxy)1-methyl-1H-indol-2-yl)(4-(4-(2,2,2-trifluoroethoxy)benzyl)piperazin-1-yl)methanone] was run?
The pKd was 8.65.

And the pIC50 [2]?
Its pIC50 is 8.54.

What about the pIC50 [3] of the same molecule?
The pIC50 was 7.99.

And the pIC50 ([4]; Pancreatic Cancer, Capan-2, read-out: IC50)?
The pIC50 was 8.03.

And the IC50 ([4]; Table 1, Capan-2, read-out: Tumour cell proliferative activity/IC50(nM) Pancreatic Cancer Capan-2)?
The IC50 was < 10 nM.

And the pIC50 [5]?
Its pIC50 is 7.49 to 9.30.

And the pIC50 [6]?
The pIC50 was 7.92.

What about the pIC50 [7] of the same molecule?
Its pIC50 is 8.44.

And the pIC50 [8]?
The pIC50 was 7.93.

What about the survival of mice [9] of the same molecule?
Its survival of mice is “significantly prolongs the survival of mice”.

What about the pIC50 [10] of the same molecule?
The pIC50 was 8.34.

What about the pIC50 [11] of the same molecule?
Its pIC50 is 7.68.

And the pIC50 [12]?
The pIC50 was 7.50.

And the pIC50 ([13]; Liver Cancer, Huh7, read-out: IC50)?
Its pIC50 is 8.07.

And the IC50 ([13]; Table 1, Huh7, read-out: Tumour cell proliferative activity/IC50(nM) Liver Cancer Huh7)?
The IC50 was < 10 nM.

And the “effect on the body weight of mice” value ([14]; PANC-1 subcutaneous model, gavage, WB737 5-20 mg/kg, IACS-010759 10 mg/kg, FIG. 2D/5C)?
The value was “no significant effect on the body weight of mice; also recorded: good tolerability”.

What about the “tumor growth (tumor volume and tumor weight)” value ([14]; PANC-1 subcutaneous, BALB/c-nude mice, 5, 10, 20 mg/kg by gavage, 3 weeks, FIG. 2) of the same molecule?
The value was “significantly inhibits the growth of pancreatic tumour”.

What about the “phosphorylation of STAT3^Y705/S727 bifunctional phosphorylation site in tumour tissue (WB and IHC)” value ([14]; PANC-1 tumour tissues, FIG. 2E and 2F) of the same molecule?
Its value is “dose-dependently inhibits phosphorylation”.

What about the pIC50 [15] of the same molecule?
The pIC50 was 7.92.

What about the pIC50 [16] of the same molecule?
The pIC50 was 7.59.

And the “effect on the body weight of mice” value ([17]; MIAPACA-2 subcutaneous model, gavage, WB737 5-20 mg/kg, IACS-010759 10 mg/kg, FIG. 3D/5D)?
Its value is “no significant effect on the body weight of mice; also recorded: good tolerability”.

And the “tumor growth (tumor volume and tumor weight)” value ([17]; MIAPACA-2 subcutaneous, BALB/c-nude mice, 5, 10, 20 mg/kg by gavage, 3 weeks, FIG. 3)?
Its value is “significantly inhibits the growth of pancreatic tumour”.

And the pIC50 [18]?
Its pIC50 is 8.19.

What about the pIC50 [19] of the same molecule?
Its pIC50 is 8.74.

What about the pIC50 [20] of the same molecule?
Its pIC50 is 7.91.
